Data: patent US20260098283A1, “In Vitro Bioproduction of Specific Chain Legnth Poly(hydroxyalkanoate) Monomers” (Kimberly-Clark Worldwide, Inc., priority 2022, published 2026)

Columns and labels:
[1] = test system: fatty acid-CoA ligase QKS25406; test: substrate chain length preference of fatty acid-CoA ligase QKS25406; format: biochemical, Halomonas titanicae; details: for percent activity: substrate chain length preference distribution, percent activity vs. carbon length, enzyme QKS25406; for suitability of the enzyme for the fatty acid (optimal / possible / not possible): result in words
Excerpt: (§1) • Sources: Enzyme sequences were identified by searching the NCBI Protein or Identical Protein Group databases. For this example, it was decided to focus primarily on the thermohalophile Thermobifida halotolerans. Sequences and accession numbers for the enzymes used in this work are listed in Appendix I. All general laboratory chemicals and long chain fatty acids were purchased from Millipore-Sigma Chemical Company (St. Louis, MO). Cloning materials and protein purification supplies were from New England Biolabs (Beverly, MA). • Enzyme cloning: The amino acid sequence for each enzyme was searched for potential signal sequences. If one was present it was removed from the sequence. A histine tag and a TEV protease cleavage sequence were added to the N-ter of each enzyme. This sequence was MHHHHHHENLYFQS to assist in purification (via an NTA-Ni column) and subsequent removal of the hexahistidine tag. Each recombinant enzyme began with an N-ter serine residue as TEV protease cleaves after the glutamine (Q). Each amino acid sequence was back translated to an E. coli codon optimized nucleic acid sequence and was synthesized using standard laboratory gene synthesis techniques. The insert was digested with Nde I and cloned into the similarly digested expression vector pET11d. Final DNA sequences were verified by DNA sequencing. Expression plasmids were used to transform E. coli Origami2 (DE3) for expression. • Protein expression and purification: A single colony was used to inoculate 5.0 mL of LBamp media ([…] ampicillin concentration). Bacteria were grown for 12 hours at 37° C. and this culture was used to inoculate 500 mL of LBamp media. This culture was grown at 37° C. until the optical density (600 nm) reached 0.4 (typically in 3-5 hours). Protein expression was induced by the addition of IPTG to a final concentration of 1 mM. Cells were grown for 12 hours at 37° C. Cells were harvested by centrifugation at 5,000×g for 20 minutes, and frozen at −80° C. until use (minimal time frozen was 24 hours). Cells were thawed on ice and were resuspended in Buffer A (0.5 M NaCl, 20 mM Tris-HCl, 5 mM imidazole, pH 7.9) (typically 1 mL per gram of cells). Cells were disrupted via two passes through a French Press followed by centrifugation at 30,000×g for 30 minutes. The crude extract was mixed with an equal volume of charged His-Bind resin slurry and the mixture was poured into 5 cm×4.9 cc column. The column was washed with 10 column volumes of wash buffer (0.5 M NaCl, 20 mM Tris-HCl, 60 mM imidazole, pH 7.9) at a flow rate of 0.2 mL/min. Enzyme was eluted from the column with the addition of 3 column volumes of 0.5 M NaCl, 20 mM Tris-HCl, 1.0 M imidazole, pH 7.9. Fractions were collected (1.0 mL). Fractions containing enzyme were pooled after analysis by SDS PAGE. The pooled fractions were applied to a 70 cmp×4.9 cc Sephadex G-75 column (10 mM Tris-HCl, PH 7.5, 1 mM EDTA). Fractions containing homogeneous protein were pooled (after inspection by SDS PAGE) and concentrated to 5 mg/ml via Centricon filters. Enzyme was stored frozen at −20° C. until use. The TRX-histidine tag region was removed from the enzymes using TEV protease. Protein was diluted to 1.0 mg/ml into 10 mM Tris-HCl, pH 7.5, 25 mM NaCl. 100 U of TEV protease was added per mg of enzyme (approximate ratio of 1:100 (w/w). The reaction was allowed to proceed for 16 h at 4° C. The mixture was passed over a charged nickel column. One column volume of eluent was collected representing purified tag-free enzyme. • Enzyme assays: The formation of long-chain fatty acid-CoA was monitored by measuring the amount of pyrophosphate released from the reaction using the MAK 168 pyrophosphate assay kit from Millipore-Sigma Chemical Co (St. Louis, MO). The formation of PHA was monitored by the increase in optical density (650 nm) as a function of time in a Molecular Devices SpectraMax 5 spectrometer. The assay measures the increase in light scattering due to precipitating PHA formed during the reaction. […]

[2] = test system: fatty acid-CoA ligase QKS24113; test: substrate chain length preference of fatty acid-CoA ligase QKS24113; format: biochemical, Halomonas titanicae; details: for percent activity: substrate chain length preference distribution, percent activity vs. carbon length, enzyme QKS24113; for suitability of the enzyme for the fatty acid (optimal / possible / not possible): result in words
Excerpt: as §1

[3] = test system: fatty acid-CoA ligase QKS24074; test: substrate chain length preference of fatty acid-CoA ligase QKS24074; format: biochemical, Halomonas titanicae; details: for percent activity: substrate chain length preference distribution, percent activity vs. carbon length, enzyme QKS24074; for suitability of the enzyme for the fatty acid (optimal / possible / not possible): result in words
Excerpt: as §1

[4] = test system: fatty acid-CoA ligase QKS26753; test: substrate chain length preference of fatty acid-CoA ligase QKS26753; format: biochemical, Halomonas titanicae; details: for percent activity: substrate chain length preference distribution, percent activity vs. carbon length, enzyme QKS26753; for suitability of the enzyme for the fatty acid (optimal / possible / not possible): result in words
Excerpt: as §1

[5] = test system: fatty acid-CoA ligase QKS23364; test: substrate chain length preference of fatty acid-CoA ligase QKS23364; format: biochemical, Halomonas titanicae; details: for percent activity: substrate chain length preference distribution, percent activity vs. carbon length, enzyme QKS23364; for suitability of the enzyme for the fatty acid (optimal / possible / not possible): result in words
Excerpt: as §1

[6] = test system: long-chain fatty acid CoA ligase; test: long-chain fatty acid CoA ligase reaction time course, Example 1 (fatty acid loss, pyrophosphate formation); format: biochemical, Thermobifida halotolerans; details: Example 1, FIG. 6/7; single fatty acid substrate
Excerpt: (§2) • Sources: Enzyme sequences were identified by searching the NCBI Protein or Identical Protein Group databases. For this example, it was decided to focus primarily on the thermohalophile Thermobifida halotolerans. Sequences and accession numbers for the enzymes used in this work are listed in Appendix I. All general laboratory chemicals and long chain fatty acids were purchased from Millipore-Sigma Chemical Company (St. Louis, MO). Cloning materials and protein purification supplies were from New England Biolabs (Beverly, MA). • Enzyme cloning: The amino acid sequence for each enzyme was searched for potential signal sequences. If one was present it was removed from the sequence. […] 100 U of TEV protease was added per mg of enzyme (approximate ratio of 1:100 (w/w). The reaction was allowed to proceed for 16 h at 4° C. The mixture was passed over a charged nickel column. One column volume of eluent was collected representing purified tag-free enzyme. • Enzyme assays: The formation of long-chain fatty acid-CoA was monitored by measuring the amount of pyrophosphate released from the reaction using the MAK 168 pyrophosphate assay kit from Millipore-Sigma Chemical Co (St. Louis, MO). The formation of PHA was monitored by the increase in optical density (650 nm) as a function of time in a Molecular Devices SpectraMax 5 spectrometer. […]

[7] = test system: overall 5-step reaction from long-chain fatty acid CoA to PHA; test: formation of precipitating PHA, optical density 650 nm, Example 1; format: biochemical, Thermobifida halotolerans; details: Example 1, FIG. 8; fatty acid as starting material
Excerpt: as §1, with “Cells were thawed on ice and were resuspended in Buffer A (0.5 M NaCl, 20 mM Tris-HCl, 5 mM imidazole, pH 7.9) (typically 1 mL per gram of cells). Cells were disrupted via two passes through a French Press followed by centrifugation at 30,000×g for 30 minutes. The crude extract was mixed with an equal volume of charged His-Bind resin slurry and the mixture was poured into 5 cm×4.9 cc column. The column was washed with 10 column volumes of wash buffer (0.5 M NaCl, 20 mM Tris-HCl, 60 mM imidazole, pH 7.9) at a flow rate of 0.2 mL/min. Enzyme was eluted from the column with the addition of 3 column volumes of 0.5 M NaCl, 20 mM Tris-HCl, 1.0 M imidazole, pH 7.9. Fractions were collected (1.0 mL). Fractions containing enzyme were pooled after analysis by SDS PAGE. The pooled fractions were applied to a 70 cmp×4.9 cc Sephadex G-75 column (10 mM Tris-HCl, PH 7.5, 1 mM EDTA). Fractions containing homogeneous protein were pooled (after inspection by SDS PAGE) and concentrated to 5 mg/ml via Centricon filters. Enzyme was stored frozen at −20° C. until use. The TRX-histidine tag region was removed from the enzymes using TEV protease. Protein was diluted to 1.0 mg/ml into 10 mM Tris-HCl, pH 7.5, 25 mM NaCl.” left out, “spectrometer.” for “spectrometer. The assay measures the increase in light scattering due to precipitating PHA formed during the reaction.”

[8] = test system: fatty acid-CoA ligase; test: long-chain fatty acid CoA ligase reaction time course, Example 5; format: biochemical, Halomonas titanicae; details: Example 5, FIG. 20/21; 1.0 M NaCl, pH 7.5
Excerpt: as §2, with “sequence. A histine tag and a TEV protease cleavage sequence were added to the N-ter of each enzyme. This sequence was MHHHHHHENLYFQS to assist in purification (via an NTA-Ni column) and subsequent removal of the hexahistidine tag. Each recombinant enzyme began with an N-ter serine residue as TEV protease cleaves after the glutamine (Q). Each amino acid sequence was back translated to an E. coli codon optimized nucleic acid sequence and was synthesized using standard laboratory gene synthesis techniques. The insert was digested with Nde I and cloned into the similarly digested expression vector pET11d. Final DNA sequences were verified by DNA sequencing.” for “sequence.”

[9] = test system: five-step reaction from long-chain fatty acid CoA to PHA; test: formation of precipitating PHA, optical density 650 nm, Example 5; format: biochemical, Halomonas titanicae; details: Example 5, FIG. 22; fatty acid as starting material
Excerpt: as §2, with “sequence. A histine tag and a TEV protease cleavage sequence were added to the N-ter of each enzyme. This sequence was MHHHHHHENLYFQS to assist in purification (via an NTA-Ni column) and subsequent removal of the hexahistidine tag. Each recombinant enzyme began with an N-ter serine residue as TEV protease cleaves after the glutamine (Q). Each amino acid sequence was back translated to an E. coli codon optimized nucleic acid sequence and was synthesized using standard laboratory gene synthesis techniques. The insert was digested with Nde I and cloned into the similarly digested expression vector pET11d. Final DNA sequences were verified by DNA sequencing.” for “sequence.”

[10] = test system: WP_068692787 enzyme (long chain fatty acid-CoA synthetase); test: formation of the CoA moiety followed by pyrophosphate formation, Example 4; format: biochemical, Thermobifida halotolerans; details: Example 4, FIG. 16; result in words
Excerpt: as §2

[11] = test system: WP_068689753 enzyme (long chain fatty acid-CoA synthetase); test: formation of the CoA moiety followed by pyrophosphate formation, Example 3; format: biochemical, Thermobifida halotolerans; details: Example 3, FIG. 13; sole substrate
Excerpt: as §2

Row | Structure (SMILES) | percent activity [1] [%] | percent activity [2] [%] | percent activity [3] [%] | percent activity [4] [%] | percent activity [5] [%] | time to completion of the long-chain fatty acid CoA ligase reaction [6] | duration of linear formation of precipitating PHA after the lag [7] [min] | lag before measurable increase in optical density (650 nm) [7] | suitability of the enzyme for the fatty acid (optimal / possible / not possible) [1] | suitability of the enzyme for the fatty acid (optimal / possible / not possible) [2] | suitability of the enzyme for the fatty acid (optimal / possible / not possible) [3] | suitability of the enzyme for the fatty acid (optimal / possible / not possible) [4] | suitability of the enzyme for the fatty acid (optimal / possible / not possible) [5] | time to completion of the long-chain fatty acid CoA ligase reaction [8] | duration of linear formation of precipitating PHA after the lag [9] [min] | conversion into the CoA moiety [10] | completion of formation of the CoA moiety [11] [min] | lag period of formation of the CoA moiety [11] [min]
1 | CCCCCCCCCCCCCCCCCCCC(=O)O [C18, arachidic acid] | 100 | 100 | 0.0 | 5.6 | 100 | complete within two hours | 150 | approximately 50 minutes | – | – | – | – | – | – | – | – | – | –
2 | CCCCCCCCCC(=O)O [C8] | 0.0 | 0.0 | 100 | 0.0 | 70.7 | – | – | – | – | – | – | – | – | – | – | – | – | –
3 | CCCCCCCCCCCCCCCCCCCCCC(=O)O [C20, behenic acid] | 100 | 100 | 0.0 | 0.0 | 46.5 | – | – | – | optimal enzymes | optimal enzymes | not possible enzymes | not possible enzymes | much lower activity | complete within two hours | 100 | – | – | –
4 | CCCCCCCC(=O)O [C6, octanoic acid] | 0.0 | 0.0 | 100 | 0.0 | 25.0 | – | – | – | not possible enzymes | not possible enzymes | optimal enzyme | not possible enzymes | much lower activity | complete within two hours | 100 | – | – | –
5 | CCCCCCCCCCCCCC(=O)O [C12, myristic acid] | 11.6 | 5.2 | 21.0 | 100 | 100 | complete within two hours | 150 | approximately 50 minutes | much lower activity | much lower activity | much lower activity | optimal enzymes | optimal enzymes | complete within two hours | 100 | – | – | –
6 | CCCCCCC(=O)O [Heptanoic acid] | – | – | – | – | – | – | – | – | – | – | – | – | – | – | – | readily converted | – | –
7 | CCCCCCCCCCCCCCCCCCCCCCCCCC(=O)O [hexacosanoic acid] | – | – | – | – | – | – | – | – | – | – | – | – | – | – | – | – | 240 | 50
8 | CCCCCCCCCCCCCCCC(=O)O [C14] | 30.4 | 21.1 | 0.0 | 100 | 100 | – | – | – | – | – | – | – | – | – | – | – | – | –
